Data: US20240165196A1, “Beta-Lactamase Inhibitors” (VIB VZW, priority 2021, published 2024)

Key:
[1] = tested on: E. coli TEM-104; assay: checkerboard assay (FICI), peptide versus penicillin G; assay type: cell-based; settings: strain with TEM; FICI below 0.5 = synergy
Excerpt: (§1) FIGS. 2A-2M. (FIG. 2A) TEM mutations and their effects on stability (total energy) as predicted by FoldX. […] Dashed line indicates a total energy difference of 0.5 kcal/mol, the FoldX cut-off above which mutations are considered to be destabilizing. (FIG. 2B) Barplot mapping mutations in (FIG. 2A) to the TEM sequence and indicating occurrence. […] The bar heights correspond to the number of times a mutation occurs across different TEM variants (right-hand y-axis). The color coding is identical to that in (FIG. 2A). Red line indicates the TANGO scores (indicated on the left-hand y-axis), with peaks corresponding to APRs. (FIG. 2C) Mapping of mutations in (FIG. 2A) and (FIG. 2B) to the TEM structure (pdb 1xpb). Protein surface is shown in gray, color coding of mutations is identical to (FIG. 2A) and (FIG. 2B). (FIGS. 2D, 2E, and 2F) Temperature-dependent evolution of the Right-Angle Light Scattering (RALS) intensity during a temperature ramp, similar as in FIG. 1F for key mutants of TEM1, namely TEM-10 (FIG. 2D), TEM-30 (FIG. 2E) and TEM-155 (FIG. 2F). Experiments were shown in triplicate, single repeat is shown. (FIG. 2G) Schematic representation of the structure of the peptides. APR—Aggregation Prone Region, R—Arginine. (FIG. 2H) Ribbon representation of the superposition of the crystal structures of TEM (green, pdb id 1bt5) and SHV (blue, pdb id 1shv). The catalytic site of the beta-lactamase activity is indicated and location of APR3 is shown in red. (FIG. 2I) TANGO aggregation score and alignment of APR3 in TEM and SHV. (FIG. 2J) Fractional Inhibitory Concentration Index determination of 5 peptides versus penicillin on E. coli TEM-104. […] FICI values below 0.5 indicate synergy. Values between 0.5 and 1.0 indicate additivity and values greater than 1 indicate indifference between the combined substances. (FIG. 2K) Same as J for E. coli SHV-11. (FIG. 2L) Same as J for a kanamycin resistant E. coli strain. (FIG. 2M) FICI values for the TEM3.2 peptide on a range of E. coli strains.
(§2) Moreover, the core sequence of peptide TEM3.0 also occurs in the structurally related SHV β-lactamase ([…]). Although the C-terminal extension residues H and N have been replaced with physicochemically similar R and Q, respectively (FIG. 2H). […] To quantify the synergy between these four peptides and penicillin G, we performed a so-called checkerboard assay, which allows to compare the activity of two test compounds co-incubated (here peptide and a beta-lactam antibiotic), to their individual activities in isolation. The result from the assay is quantified as the Fractional Inhibitory Concentration Index (FICI), and it is generally accepted that values below 0.5 indicate synergistic effects between the compounds. As a control, we generated a peptide using the same design, but based on a previously identified APR from the β-galactosidase enzyme (BGAL)^16 from E. coli (APR=SVIIWSL, peptide sequence=[…]) that has a MIC value>100 μg/mL on E. coli strain UZ_TEM104. We evaluated the synergy of the peptides with penicillin G in clinical E. coli isolates carrying the TEM ([…]) or SHV enzymes ([…]). […] As a further control, we also performed a checkerboard assay with an E. coli strain that was resistant to the aminoglycoside kanamycin and observed no synergy between this unrelated antibiotic and our peptides (FIG. 2L), in line with the notion that we are inhibiting a beta-lactamase but not the aminoglycoside degrading enzyme. […] The list of strains included some that harbored only TEM or SHV, but others contained additional Ambler Class A (CTX-M or […]) or Class B (VIM and NDM) beta-lactamases. […] In contrast, the presence of the NDM-type […], that does have a high affinity for Ampicillin and that is completely distinct in sequence and structure from TEM and SHV, seemed to completely prevent the effect of the peptide on the beta-lactam sensitivity of the strains in which it occurred (see also further). […]

[2] = tested on: E. coli SHV-11; assay: as above; assay type: cell-based; settings: strain with SHV-11; FICI below 0.5 = synergy
Excerpt: as §1, §2

[3] = tested on: E. coli strains carrying ESBL mutants of TEM; assay: checkerboard assay (FICI), TEM3.2 versus ampicillin; assay type: cell-based
Excerpt: FIGS. 2A-2M. (FIG. 2A) TEM mutations and their effects on stability (total energy) as predicted by FoldX. […] Dashed line indicates a total energy difference of 0.5 kcal/mol, the FoldX cut-off above which mutations are considered to be destabilizing. (FIG. 2B) Barplot mapping mutations in (FIG. 2A) to the TEM sequence and indicating occurrence. […] The bar heights correspond to the number of times a mutation occurs across different TEM variants (right-hand y-axis). The color coding is identical to that in (FIG. 2A). Red line indicates the TANGO scores (indicated on the left-hand y-axis), with peaks corresponding to APRs. […]
Moreover, the core sequence of peptide TEM3.0 also occurs in the structurally related SHV β-lactamase (FIG. 2E). […] To quantify the synergy between these four peptides and penicillin G, we performed a so-called checkerboard assay, which allows to compare the activity of two test compounds co-incubated (here peptide and a beta-lactam antibiotic), to their individual activities in isolation. The result from the assay is quantified as the Fractional Inhibitory Concentration Index (FICI), and it is generally accepted that values below 0.5 indicate synergistic effects between the compounds. […] We evaluated the synergy of the peptides with penicillin G in clinical E. coli isolates carrying the TEM (FIG. 2I) or SHV enzymes (FIG. 2J). […]

[4] = tested on: SHV beta-lactamase in strain expressing SHV-154; assay: western blot of inclusion body (IB) fraction for SHV; assay type: cell-based, E. coli; settings: 12 μM peptide in PBS, 120 min
Method: (§3) FIGS. 3A-3P. […] Three replicates are shown for each condition. […] A single representative image is shown. […] Three replicates are shown for each condition. (FIG. 3E) [Left] […] [Middle] […] [Right] […] A single representative image is shown. […] A single representative image is shown. […] A single representative image is shown. […] A single representative blot is shown. […] 106 cells were analysed for the plot.
(§4) Moreover, we confirmed the presence of the protein in the correct band using mass spectrometry proteomics. We repeated this with a strain expressing SHV-154, blotting with a polyclonal rabbit antibody raised against the recombinant SHV enzyme described above (FIG. 3K).
(§5) The overnight culture of bacteria was centrifuged for 30 min at 4,000×g and cells were washed with physiological water (NaCl 0.9%). Bacterial cells were treated by peptide at the appropriate concentration for at least 2 h at 37 C. The bacterial pellets were washed with 10 mL buffer A (50 mM HEPES, pH 7.5, 300 mM NaCl, 5 mM β-mercaptoethanol, 1.0 mM EDTA) and centrifuged at 4° C. for 30 min at 4,000×g. The supernatant was discarded and 20 mL of buffer B (buffer A plus 1 tablet of the protease and phosphatase Inhibitor Cocktail (ab201119, Abcam, UK) was added to the bacterial pellet. In order to break the cells, a High-Pressure Homogenizer (Glen Creston Ltd) with the pressure set to 20,000-25,000 psi was used on ice, and in addition, the suspensions were sonicated (Branson Digital sonifier 50/60 Hz) on ice with alternating 2 min cycle (15 pulses at 50% power with 30 s pauses on ice, until completing 2 min total sonication time). The lysed cells were centrifuged at 4° C. for 30 min at 11,000×g. The precipitated fraction was afterward re-suspended with 10 mL buffer D (buffer A plus 0.8% (V/V) Triton X-100, 0.1% sodium deoxycholate) and the suspension was sonicated to ensure the pellet is completely dissolved. This step was repeated three times. Centrifugation was performed at 4° C. for 30 min at 11,000×g. Finally, to solubilize IBs, the pellet was suspended in 500 ul of buffer F (50 mM HEPES, pH 7.5, 8.0 M urea) of precipitated fraction.

[5] = tested on: TEM beta-lactamase in E. coli UZ_TEM104; assay: western blot of inclusion body (IB) fraction for TEM; assay type: cell-based; settings: 12 μM peptide in PBS, 120 min
Method: as §3, §4, §5

Ac-RLTAFLHNRRPRLTAFLRQRR-NH2 [TEM3.2]
synergy with penicillin G (FICI) [1]: synergy | synergy with penicillin G (FICI) [2]: synergy | synergy with ampicillin (FICI) [3]: synergy | accumulation of the SHV enzyme in inclusion bodies (western blot) [4]: accumulates in IBs | enrichment of the TEM protein in inclusion bodies (western blot) [5]: clear enrichment of the TEM protein in IBs

Ac-RLTAFLHNRRPRLTAFLHNRR-NH2 [TEM3.0]
synergy with penicillin G (FICI) [1]: clear synergy | synergy with penicillin G (FICI) [2]: not in a strain containing the SHV-11 enzyme | accumulation of the SHV enzyme in inclusion bodies (western blot) [4]: not | enrichment of the TEM protein in inclusion bodies (western blot) [5]: clear enrichment of the TEM protein in IBs
